Test results as given in PubChem BioAssay AID2060903 (Molecular Pharmacology Branch, DTP, NCI, 2025).

Tested on: 377384-186-R-J1-PDC complex spheroid viability
Assay: Anticancer human tumor 377384-186-R-J1-PDC patient-derived pancreatic carcinoma cell line growth inhibition [RAS]
Details: for IC50: curve of first compound; for viability, T/C: stronger effect = lower value
Outline: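 Tumour cells grown as complex spheroids with HUVEC endothelial cells and mesenchymal stem cells, treated with RAS pathway inhibitor combinations. Each agent spans half-log steps from near clinical Cmax, or 10 microM where Cmax is unknown.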

[1] = second compound 0.000949 µM, first compound 0.0316 µM
[2] = second compound 0.000949 µM, first compound 0.1 µM
[3] = second compound 0.000949 µM, first compound 0.316 µM
[4] = second compound 0.000949 µM, first compound 1 µM
[5] = second compound 0.003 µM, first compound 0.0316 µM
[6] = second compound 0.003 µM, first compound 0.1 µM
[7] = second compound 0.003 µM, first compound 0.316 µM
[8] = second compound 0.003 µM, first compound 1 µM
[9] = second compound 0.00949 µM, first compound 0.0316 µM
[10] = second compound 0.00949 µM, first compound 0.1 µM
[11] = second compound 0.00949 µM, first compound 0.316 µM
[12] = second compound 0.00949 µM, first compound 1 µM
[13] = second compound 0.03 µM, first compound 0.0316 µM
[14] = second compound 0.03 µM, first compound 0.1 µM
[15] = second compound 0.03 µM, first compound 0.316 µM
[16] = second compound 0.03 µM, first compound 1 µM
[17] = second compound 0.0949 µM, first compound 0.0316 µM
[18] = second compound 0.0949 µM, first compound 0.1 µM
[19] = second compound 0.0949 µM, first compound 0.316 µM
[20] = second compound 0.0949 µM, first compound 1 µM
[21] = second compound 0.3 µM, first compound 0.0316 µM
[22] = second compound 0.3 µM, first compound 0.1 µM
[23] = second compound 0.3 µM, first compound 0.316 µM
[24] = second compound 0.3 µM, first compound 1 µM
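Further: spheroids exposed to compounds for seven days before readout.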

In the case of C=CC(=O)Nc1cc(Nc2nccc(-c3cn(C)c4ccccc34)n2)c(OC)cc1N(C)CCN(C)C + C=CC(=O)N1CCN(c2nc(OCC3CCCN3C)nc3c(F)c(-c4nc(N)cc(C)c4C(F)(F)F)c(Cl)cc23)C(C)C1, the IC50 (second compound 0.00316 µM) is reported as 659 nM, the IC50 (second compound 0.01 µM) is reported as 602 nM and the IC50 (second compound 0.0316 µM) is reported as 851 nM. For the same molecule, the IC50 (second compound 0.1 µM) was 821 nM, the IC50 (second compound 0.316 µM) was 905 nM and the IC50 (second compound 1 µM) was 800 nM. It also gave a viability, T/C (second compound 0.00316 µM, first compound 0.00316 µM) of 99.4%, a viability, T/C (second compound 0.00316 µM, first compound 0.01 µM) of 90.1% and a viability, T/C (second compound 0.00316 µM, first compound 0.0316 µM) of 98.1%. It also gave a viability, T/C (second compound 0.00316 µM, first compound 0.1 µM) of 81.3%, a viability, T/C (second compound 0.00316 µM, first compound 0.316 µM) of 61% and a viability, T/C (second compound 0.00316 µM, first compound 1 µM) of 43.9%. It also gave a viability, T/C (second compound 0.01 µM, first compound 0.00316 µM) of 87.6%, a viability, T/C (second compound 0.01 µM, first compound 0.01 µM) of 86.8% and a viability, T/C (second compound 0.01 µM, first compound 0.0316 µM) of 87.8%. For the same molecule, the viability, T/C (second compound 0.01 µM, first compound 0.1 µM) was 81.2%, the viability, T/C (second compound 0.01 µM, first compound 0.316 µM) was 59.9% and the viability, T/C (second compound 0.01 µM, first compound 1 µM) was 42.2%. It also gave a viability, T/C (second compound 0.0316 µM, first compound 0.00316 µM) of 96.7%, a viability, T/C (second compound 0.0316 µM, first compound 0.01 µM) of 81.5% and a viability, T/C (second compound 0.0316 µM, first compound 0.0316 µM) of 90.7%. For the same molecule, the viability, T/C (second compound 0.0316 µM, first compound 0.1 µM) was 79.1%, the viability, T/C (second compound 0.0316 µM, first compound 0.316 µM) was 64.6% and the viability, T/C (second compound 0.0316 µM, first compound 1 µM) was 47.5%. It also gave a viability, T/C (second compound 0.1 µM, first compound 0.00316 µM) of 96.4%, a viability, T/C (second compound 0.1 µM, first compound 0.01 µM) of 88.8% and a viability, T/C (second compound 0.1 µM, first compound 0.0316 µM) of 102%. The viability, T/C (second compound 0.1 µM, first compound 0.1 µM) was 77.3%, the viability, T/C (second compound 0.1 µM, first compound 0.316 µM) was 70% and the viability, T/C (second compound 0.1 µM, first compound 1 µM) was 46%. It also gave a viability, T/C (second compound 0.316 µM, first compound 0.00316 µM) of 92.1%, a viability, T/C (second compound 0.316 µM, first compound 0.01 µM) of 98.3% and a viability, T/C (second compound 0.316 µM, first compound 0.0316 µM) of 83.8%. The viability, T/C (second compound 0.316 µM, first compound 0.1 µM) was 77.9%, the viability, T/C (second compound 0.316 µM, first compound 0.316 µM) was 64.8% and the viability, T/C (second compound 0.316 µM, first compound 1 µM) was 48.4%. It also gave a viability, T/C (second compound 1 µM, first compound 0.00316 µM) of 93.2%, a viability, T/C (second compound 1 µM, first compound 0.01 µM) of 84.1% and a viability, T/C (second compound 1 µM, first compound 0.0316 µM) of 85.2%. For the same molecule, the viability, T/C (second compound 1 µM, first compound 0.1 µM) was 83.9%, the viability, T/C (second compound 1 µM, first compound 0.316 µM) was 65.6% and the viability, T/C (second compound 1 µM, first compound 1 µM) was 46.2%.

O=C(c1ccc(F)c(F)c1Nc1ccc(I)cc1F)N1CC(O)([C@@H]2CCCCN2)C1 + CCn1c(-c2cc(N3CCN(C)CC3)cnc2C(C)OC)c2c3cc(ccc31)-c1csc(n1)CC(NC(=O)C1CC1C)C(=O)N1CCCC(N1)C(=O)OCC(C)(C)C2 gave an IC50 (second compound 0.000949 µM) of under 3.16 nM, an IC50 (second compound 0.003 µM) of under 3.16 nM and an IC50 (second compound 0.00949 µM) of under 3.16 nM. For the same molecule, the IC50 (second compound 0.03 µM) was under 3.16 nM, the IC50 (second compound 0.0949 µM) was under 3.16 nM and the IC50 (second compound 0.3 µM) was under 3.16 nM. It also gave a viability, T/C (second compound 0.000949 µM, first compound 0.00316 µM) of 40.6%, a viability, T/C (second compound 0.000949 µM, first compound 0.01 µM) of 28.1% and a viability, T/C [1] of 9.77%. It also gave a viability, T/C [2] of 2.04%, a viability, T/C [3] of 0.28% and a viability, T/C [4] of 0.8%. For the same molecule, the viability, T/C (second compound 0.003 µM, first compound 0.00316 µM) was 16.4%, the viability, T/C (second compound 0.003 µM, first compound 0.01 µM) was 4.75% and the viability, T/C [5] was 3.32%. The viability, T/C [6] was 1.15%, the viability, T/C [7] was 0.17% and the viability, T/C [8] was 0.13%. The viability, T/C (second compound 0.00949 µM, first compound 0.00316 µM) was 3.22%, the viability, T/C (second compound 0.00949 µM, first compound 0.01 µM) was 2.06% and the viability, T/C [9] was 1.32%. It also gave a viability, T/C [10] of 0.24%, a viability, T/C [11] of 0.08% and a viability, T/C [12] of 0.13%. For the same molecule, the viability, T/C (second compound 0.03 µM, first compound 0.00316 µM) was 2.61%, the viability, T/C (second compound 0.03 µM, first compound 0.01 µM) was 1.37% and the viability, T/C [13] was 0.71%. It also gave a viability, T/C [14] of 0.07%, a viability, T/C [15] of 0.12% and a viability, T/C [16] of 0.09%. The viability, T/C (second compound 0.0949 µM, first compound 0.00316 µM) was 1.11%, the viability, T/C (second compound 0.0949 µM, first compound 0.01 µM) was 0.96% and the viability, T/C [17] was 0.28%. It also gave a viability, T/C [18] of 0.12%, a viability, T/C [19] of 0.15% and a viability, T/C [20] of 0.18%. The viability, T/C (second compound 0.3 µM, first compound 0.00316 µM) was 1.01%, the viability, T/C (second compound 0.3 µM, first compound 0.01 µM) was 1.34% and the viability, T/C [21] was 0.16%. It also gave a viability, T/C [22] of 0.2%, a viability, T/C [23] of 0.28% and a viability, T/C [24] of 0.18%.

CC1(O)CCCC1n1c(=O)c(C(F)F)cc2cnc(NC3CCN(S(C)(=O)=O)CC3)nc21 (stereo unspecified) + CCn1c(-c2cccnc2C(C)OC)c2c3cc(ccc31)N1CCOC(CC(NC(=O)C(C(C)C)N(C)C(=O)C3(F)CCN(C(=O)C#CC(C)(C)N(C)C)CC3)C(=O)N3CCCC(N3)C(=O)OCC(C)(C)C2)C1 gave an IC50 (second compound 0.000949 µM) of 91.3 nM, an IC50 (second compound 0.003 µM) of 105 nM and an IC50 (second compound 0.00949 µM) of 122 nM. It also gave an IC50 (second compound 0.03 µM) of 111 nM, an IC50 (second compound 0.0949 µM) of 78.5 nM and an IC50 (second compound 0.3 µM) of 62.8 nM. The viability, T/C [1] was 79.6%, the viability, T/C [2] was 46.6% and the viability, T/C [3] was 28.9%. For the same molecule, the viability, T/C [4] was 28.6%, the viability, T/C (second compound 0.000949 µM, first compound 3.16 µM) was 35.1% and the viability, T/C (second compound 0.000949 µM, first compound 10 µM) was 9.26%. It also gave a viability, T/C [5] of 76.8%, a viability, T/C [6] of 52.7% and a viability, T/C [7] of 28.8%. For the same molecule, the viability, T/C [8] was 26.6%, the viability, T/C (second compound 0.003 µM, first compound 3.16 µM) was 34.8% and the viability, T/C (second compound 0.003 µM, first compound 10 µM) was 8.79%. For the same molecule, the viability, T/C [9] was 84.6%, the viability, T/C [10] was 55.6% and the viability, T/C [11] was 27%. It also gave a viability, T/C [12] of 29.7%, a viability, T/C (second compound 0.00949 µM, first compound 3.16 µM) of 36% and a viability, T/C (second compound 0.00949 µM, first compound 10 µM) of 7.91%. It also gave a viability, T/C [13] of 67.4%, a viability, T/C [14] of 52.6% and a viability, T/C [15] of 24.9%. It also gave a viability, T/C [16] of 21.5%, a viability, T/C (second compound 0.03 µM, first compound 3.16 µM) of 34.7% and a viability, T/C (second compound 0.03 µM, first compound 10 µM) of 7.53%. For the same molecule, the viability, T/C [17] was 71.3%, the viability, T/C [18] was 46.5% and the viability, T/C [19] was 23.9%. The viability, T/C [20] was 22.2%, the viability, T/C (second compound 0.0949 µM, first compound 3.16 µM) was 33.4% and the viability, T/C (second compound 0.0949 µM, first compound 10 µM) was 6.19%. The viability, T/C [21] was 68%, the viability, T/C [22] was 37.7% and the viability, T/C [23] was 18.6%. It also gave a viability, T/C [24] of 22.7%, a viability, T/C (second compound 0.3 µM, first compound 3.16 µM) of 34.7% and a viability, T/C (second compound 0.3 µM, first compound 10 µM) of 5.35%.
